Measured values taken from patent US20120058150A1, “Methods for Delivering Compositions by Electrospraying a Medical Device” (COLORADO STATE UNIVERSITY RESEARCH FOUNDATION, priority 2010, published 2012).

Assay: gentamicin sulfate loading efficiency of E-sprayed DOPS coatings
Assay type: physicochemical
Details: 14 kV E-spray voltage compared with the other voltages (FIG. 4)

gentamicin sulfate
gentamicin sulfate loading efficiencies: significantly greater
